How the values were obtained:
[1] = target: T1, Alpha-1B adrenergic receptor (Rattus norvegicus, UniProt P15823); test: Displacement of [3H]prazosin from adrenergic Alpha-1B receptor in rat brain membrane; type: cell membranes
T1 sequence (P15823 whole entry): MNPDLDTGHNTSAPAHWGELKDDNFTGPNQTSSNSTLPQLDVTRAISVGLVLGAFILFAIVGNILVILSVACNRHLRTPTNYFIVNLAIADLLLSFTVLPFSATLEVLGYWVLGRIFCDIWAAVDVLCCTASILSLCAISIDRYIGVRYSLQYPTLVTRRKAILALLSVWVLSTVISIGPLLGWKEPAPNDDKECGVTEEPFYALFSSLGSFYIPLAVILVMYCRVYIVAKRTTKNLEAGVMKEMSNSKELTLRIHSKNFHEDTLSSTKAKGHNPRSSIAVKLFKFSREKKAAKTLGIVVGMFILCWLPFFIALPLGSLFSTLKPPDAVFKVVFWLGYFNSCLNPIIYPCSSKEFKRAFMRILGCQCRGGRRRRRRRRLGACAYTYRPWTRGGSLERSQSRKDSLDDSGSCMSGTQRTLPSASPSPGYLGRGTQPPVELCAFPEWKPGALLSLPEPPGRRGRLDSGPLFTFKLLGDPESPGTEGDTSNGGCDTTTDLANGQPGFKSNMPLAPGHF

[2] = target: T2, Alpha-1A adrenergic receptor (Rattus norvegicus, UniProt P43140); test: Displacement of [3H]prazosin from adrenergic alpha1A receptor in rat brain membrane; type: cell membranes
T2 sequence (P43140 whole entry): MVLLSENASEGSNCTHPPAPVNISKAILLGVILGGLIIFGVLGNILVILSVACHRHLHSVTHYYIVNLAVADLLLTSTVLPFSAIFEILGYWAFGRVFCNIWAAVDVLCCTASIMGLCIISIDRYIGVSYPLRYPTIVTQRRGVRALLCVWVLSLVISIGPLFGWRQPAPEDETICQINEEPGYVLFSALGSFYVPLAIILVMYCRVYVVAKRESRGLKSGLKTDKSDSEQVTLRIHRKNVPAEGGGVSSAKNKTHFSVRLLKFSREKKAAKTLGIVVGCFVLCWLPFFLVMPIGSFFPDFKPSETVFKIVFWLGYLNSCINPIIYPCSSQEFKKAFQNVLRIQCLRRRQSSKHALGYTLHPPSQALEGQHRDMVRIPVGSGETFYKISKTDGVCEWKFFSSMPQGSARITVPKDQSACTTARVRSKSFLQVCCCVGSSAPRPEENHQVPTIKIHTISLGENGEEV

D(1A) dopamine receptor = D(1A) dopamine receptor (Rattus norvegicus, UniProt P18901); test: Displacement of [3H]SCH23390 from dopamine D1 receptor in Wistar rat striatal membrane; type: cell membranes, Striatum
Sequence of D(1A) dopamine receptor (P18901 whole entry): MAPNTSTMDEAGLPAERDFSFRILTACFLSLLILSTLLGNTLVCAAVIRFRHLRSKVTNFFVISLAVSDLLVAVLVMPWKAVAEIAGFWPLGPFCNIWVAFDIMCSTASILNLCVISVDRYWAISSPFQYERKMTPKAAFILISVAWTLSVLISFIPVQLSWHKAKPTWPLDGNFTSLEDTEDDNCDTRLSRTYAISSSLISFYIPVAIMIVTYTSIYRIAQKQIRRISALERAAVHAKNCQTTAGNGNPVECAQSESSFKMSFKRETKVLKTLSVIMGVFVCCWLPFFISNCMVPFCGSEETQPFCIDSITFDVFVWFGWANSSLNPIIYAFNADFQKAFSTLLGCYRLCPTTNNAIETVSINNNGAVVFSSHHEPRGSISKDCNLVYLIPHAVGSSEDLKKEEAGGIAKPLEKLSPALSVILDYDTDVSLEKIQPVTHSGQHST

D(2) dopamine receptor = D(2) dopamine receptor (Rattus norvegicus, UniProt P61169); test: Displacement of [3H]raclopride from dopamine D2 receptor in Wistar rat striatal membrane; type: cell membranes, Striatum
Sequence of D(2) dopamine receptor (P61169 whole entry): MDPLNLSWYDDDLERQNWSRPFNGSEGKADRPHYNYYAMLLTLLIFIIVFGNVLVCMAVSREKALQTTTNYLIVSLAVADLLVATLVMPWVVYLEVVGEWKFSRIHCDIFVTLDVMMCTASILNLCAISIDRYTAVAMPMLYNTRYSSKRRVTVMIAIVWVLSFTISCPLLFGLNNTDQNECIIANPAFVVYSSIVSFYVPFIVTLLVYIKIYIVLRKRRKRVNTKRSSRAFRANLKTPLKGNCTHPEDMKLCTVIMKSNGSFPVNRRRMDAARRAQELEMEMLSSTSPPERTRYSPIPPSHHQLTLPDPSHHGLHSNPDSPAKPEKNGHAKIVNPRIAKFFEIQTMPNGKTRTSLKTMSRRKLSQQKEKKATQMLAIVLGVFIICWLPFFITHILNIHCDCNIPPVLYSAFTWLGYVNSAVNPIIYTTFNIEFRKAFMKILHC

Rattus norvegicus [3] = organism: Rattus norvegicus; test: Selectivity ratio of IC50 for Wistar rat dopamine D2 receptor to IC50 for Wistar rat dopamine D1 receptor
Rattus norvegicus [4] = organism: Rattus norvegicus; test: Selectivity ratio of IC50 for rat adrenergic alpha1A receptor to IC50 for adrenergic Alpha-1B receptor

Structure (SMILES)	Ki [1] [nM]	Ki [2] [nM]	IC50 (D(1A) dopamine receptor) [nM]	IC50 (D(2) dopamine receptor) [nM]	Ratio IC50 (Rattus norvegicus [3])	Ratio (Rattus norvegicus [4])
COc1cc2c(cc1O)C[C@H]1c3c(cc(O)c(OC)c3-2)CCN1C [BOLDINE]	316	4.9				
COc1cc2c(cc1O)C[C@H]1c3c(c(Cl)c(O)c(OC)c3-2)CCN1C	269	2.24	81	720	8.9	122
COc1cc2c(c(Br)c1O)C[C@H]1c3c(c(Br)c(O)c(OC)c3-2)CCN1C	120	1.35	206	1910	9.3	90
COc1cc2c(cc1O)C[C@H]1c3c(c(Br)c(O)c(OC)c3-2)CCN1C [3-BROMOBOLDINE]	135	1.17	66	1050	15.9	120
COc1cc2c(cc1O)C[C@H]1c3c(c(I)c(O)c(OC)c3-2)CCN1C			3	96	32	
